Results on 8 compounds are retold here after PubChem BioAssay (NCI).

Among the test systems are NCI-H23 lung; SF-539 CNS; HOP-62 NSCLC; HS 578T breast; U251 CNS; COLO 205 colon; HCT-15 colon; SK-MEL-5 melanoma; HCC-2998 colon; HL-60(TB) leukemia; A498 renal; SW-620 colon; TK-10 renal; MALME-3M melanoma; DU-145 prostate; SNB-75 CNS.
Common to all, as to assay: NCI-60 cell line screen, 48 h

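Exposure lasted 48 hours, with cells grown in 96-well plates and compounds tested at five concentrations. At the GI50, growth is halved. The concentration for full growth arrest is given as TGI.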 Where only a bound is given, the exact number is not on record here.

With `COC(CN(C)C(=S)Nc1cccc2ccccc12)OC`, the TGI with NCI-H23 lung, in the assay with SF-539 CNS, in the assay on HOP-62 NSCLC, in the assay on HS 578T breast, with U251 CNS and in the assay on COLO 205 colon was > 10 µM each time. Moreover, the TGI with HCT-15 colon, in the assay with SK-MEL-5 melanoma, with HCC-2998 colon, with HL-60(TB) leukemia, in the assay with A498 renal and in the assay on SW-620 colon was > 10 µM each time. Moreover, the TGI in the assay on TK-10 renal, in the assay with MALME-3M melanoma, with DU-145 prostate and with SNB-75 CNS was > 10 µM each time.
With `COc1ccccc1C1c2cc3c(cc2OC2(OC)COC(=O)C12)OCO3` (centres undefined), the TGI in the assay on NCI-H23 lung is > 100 µM; with SF-539 CNS it was 33.4 µM; with HOP-62 NSCLC it was > 91.2 µM; in the assay with HS 578T breast, 34.8 µM; in the assay on U251 CNS it was > 100 µM; in the assay on COLO 205 colon, 67.3 µM. Moreover, the TGI with HCT-15 colon was > 100 µM; in the assay with SK-MEL-5 melanoma, 59.3 µM; in the assay on HCC-2998 colon it was > 63.8 µM; in the assay on HL-60(TB) leukemia, 18.5 µM; in the assay on A498 renal, 54.4 µM; in the assay with SW-620 colon, > 100 µM. In addition, the TGI was > 92.4 µM in the assay with TK-10 renal, > 100 µM in the assay with MALME-3M melanoma, 69.4 µM in the assay with DU-145 prostate and 43.1 µM in the assay on SNB-75 CNS.
Take `COC(=O)c1cc2c(cc1Cl)Sc1nnc(Nc3ccccc3)n1S2(=O)=O`: the TGI with NCI-H23 lung is 6.71 µM; in the assay with SF-539 CNS, 6.07 µM; in the assay with HOP-62 NSCLC, 5.52 µM; in the assay on HS 578T breast, 11.4 µM; in the assay on U251 CNS, 11.6 µM; with COLO 205 colon, 19.5 µM. Further, the TGI in the assay on HCT-15 colon was found to be 6.05 µM; with SK-MEL-5 melanoma, 21.2 µM; in the assay on HCC-2998 colon it was 4.59 µM; with HL-60(TB) leukemia it was 7.62 µM; with A498 renal, 12.9 µM; in the assay on SW-620 colon, 11.1 µM. Besides, the TGI turned out to be 8.66 µM in the assay with TK-10 renal, 11.6 µM with MALME-3M melanoma, 3.87 µM in the assay with DU-145 prostate and 17.1 µM with SNB-75 CNS.
Consider `O=C(NCCN(CCNC(=O)c1cccc(O)c1O)CCNC(=O)c1cccc(O)c1O)c1cccc(O)c1O`, for which the TGI is > 57.4 µM in the assay on NCI-H23 lung; > 100 µM in the assay with SF-539 CNS; > 91.6 µM with HOP-62 NSCLC; > 100 µM in the assay on HS 578T breast; > 89 µM with U251 CNS; > 100 µM in the assay with COLO 205 colon. Besides, the TGI is > 100 µM in the assay with HCT-15 colon; > 55.8 µM in the assay with SK-MEL-5 melanoma; > 60.2 µM with HCC-2998 colon; > 100 µM with HL-60(TB) leukemia; > 100 µM in the assay with A498 renal; > 100 µM in the assay with SW-620 colon. The TGI is > 100 µM in the assay with TK-10 renal, > 52.5 µM in the assay with MALME-3M melanoma, > 78.9 µM in the assay on DU-145 prostate and > 100 µM in the assay on SNB-75 CNS.
Regarding `S=C1Cc2c(-c3ccccc3)cc(-c3cccc(Cl)c3)nc2-c2ccccc2N1`, the TGI in the assay on NCI-H23 lung was 21.2 µM; in the assay with SF-539 CNS it was 8.54 µM; in the assay on HOP-62 NSCLC, 6.48 µM; in the assay on HS 578T breast, 6.12 µM; in the assay on U251 CNS it was 3.31 µM; in the assay on COLO 205 colon, > 100 µM. Besides, the TGI in the assay with HCT-15 colon is 33.4 µM; in the assay with SK-MEL-5 melanoma, > 81.7 µM; in the assay with HCC-2998 colon, 18.7 µM; with HL-60(TB) leukemia, 54.9 µM; in the assay with A498 renal, 10.4 µM; with SW-620 colon, 15.4 µM. Moreover, the TGI in the assay on TK-10 renal was 1.9 µM; in the assay on MALME-3M melanoma, > 24.5 µM; in the assay on DU-145 prostate, 38.9 µM; in the assay with SNB-75 CNS it was 5.86 µM. Further, the GI50 in the assay on TK-10 renal is 0.436 µM.
As to `Cc1c(C)c2c(c(N)c1C#N)C(=O)N(Cc1ccc(S(N)(=O)=O)cc1)C2=O`, the TGI in the assay on NCI-H23 lung was > 100 µM; with SF-539 CNS, > 60.1 µM; in the assay with HOP-62 NSCLC it was 19.3 µM; with HS 578T breast, > 100 µM; in the assay with U251 CNS it was > 80.6 µM; in the assay with COLO 205 colon, > 100 µM. The TGI with HCT-15 colon is > 100 µM; in the assay on SK-MEL-5 melanoma it was > 100 µM; with HCC-2998 colon it was > 100 µM; in the assay with HL-60(TB) leukemia, > 100 µM; in the assay on A498 renal it was > 70.6 µM; in the assay with SW-620 colon, > 100 µM. The TGI is 99.7 µM in the assay on TK-10 renal, > 100 µM in the assay on MALME-3M melanoma, > 75.8 µM with DU-145 prostate and > 53.3 µM in the assay on SNB-75 CNS.
`C=C1CC[C@@H](CCC2CCC3(OC2)O[C@]2(O)CC[C@@]3(C)OC2(C)C)C(C)(C)[C@H]1C/C=C1\CCOC1=O` (some centres undefined): the TGI in the assay with NCI-H23 lung is > 100 µM; in the assay with SF-539 CNS it was > 32.4 µM; in the assay on HOP-62 NSCLC, > 100 µM; with HS 578T breast, > 80.7 µM; in the assay on U251 CNS it was 43.5 µM; with COLO 205 colon, 35.3 µM. In addition, the TGI in the assay with HCT-15 colon was > 81.4 µM; in the assay with SK-MEL-5 melanoma, 4.93 µM; with HCC-2998 colon, > 53.3 µM; with HL-60(TB) leukemia it was 17 µM; with A498 renal it was 34.9 µM; in the assay on SW-620 colon it was > 100 µM. Besides, the TGI is > 93.1 µM in the assay with TK-10 renal, 55.2 µM with MALME-3M melanoma, > 100 µM with DU-145 prostate and > 92.4 µM in the assay on SNB-75 CNS.
`CCOC(=O)c1c2c(n(-c3ccc(C)cc3)c1C)-c1ccccc1C(=O)C2(C(=O)OCC)C(=O)OCC`: the TGI was > 100 µM in the assay with NCI-H23 lung; > 71.9 µM with SF-539 CNS; > 100 µM in the assay with HOP-62 NSCLC; 86.5 µM with HS 578T breast; > 100 µM in the assay with U251 CNS; > 100 µM in the assay on COLO 205 colon. The TGI in the assay on HCT-15 colon is > 100 µM; in the assay with SK-MEL-5 melanoma, 50.4 µM; in the assay on HCC-2998 colon, 69.9 µM; with HL-60(TB) leukemia, 18.6 µM; in the assay on A498 renal, 97.3 µM; with SW-620 colon, > 100 µM. The TGI with TK-10 renal is > 100 µM; with MALME-3M melanoma, > 75.5 µM; with DU-145 prostate, > 100 µM; in the assay on SNB-75 CNS, > 91.4 µM.
